Measured values as given in publication PMC7969873 (Cell Reports, 2021).
Like-named read-outs stand apart in the source and are kept apart here.

How the values were obtained:
SARS-CoV-2 [1] = format: cell-based; conditions: 250 nM, Vero E6 cells, 48 h
SARS-CoV-2 [2] = test: microbe, parasite or virus in culture; format: cell-based; conditions: Vero E6 cells; IFA; read-out: IC50, inhibition of SARS-CoV-2 infectivity
SARS-CoV-2 [3] = test: SARS-CoV-2 infection of HEK293-ACE2 cells (IFA); format: cell-based; conditions: 100 nM, 48 hpi
SARS-CoV-2 [4] = format: cell-based; conditions: hiPSC-CMs, 250 nM
hiPSC-CMs = test: Cardiomyocyte beating / in vitro cardiotoxicity in hiPSC-CMs; format: cell-based, human; conditions: hiPSC-CMs; 250 nM
Protocol: Thus, we used the human-induced pluripotent stem-cell-derived cardiomyocyte (hiPSC-CM) system for antiviral drug testing against SARS-CoV-2. […] Thus, this cardiomyocyte system is useful for antiviral drug testing against SARS-CoV-2. […] The inhibition of virus production by berzosertib was evaluated by quantifying the infectious virus (TCID50) in the supernatant at various time points (Figure 2B). […] Infection of cardiomyocytes with SARS-CoV-2 was confirmed by specific staining of cardiac troponin T (cTnT) and viral spike proteins (Figure 2E). Untreated SARS-CoV-2-infected cells had infection-mediated cell injury with disrupted troponin T fibers.

[5] = HeLa-ACE2 uninfected host cell cytotoxicity counter screen; format: cell-based; conditions: human, uninfected HeLa-ACE2 cells; read-out: median cytotoxic concentration (CC50)
Protocol: Compounds were acoustically transferred into 1,536-well μclear plates (Greiner Part. No. 789091). HeLa-ACE2 cells were maintained as described for the infection assay and seeded in the assay-ready plates at 400 cells/well in DMEM with 2% FBS and plates were incubated for 24 hours at 37°C 5% CO2. To assess cell viability, the Image-iT DEAD green reagent (Thermo Fisher) was used according to manufacturer instructions. Cells were fixed with 4% paraformaldehyde, and counterstained with DAPI.

SARS-CoV-2 [6] = test: microbe, parasite or virus in culture; format: cell-based; conditions: Severe acute respiratory syndrome coronavirus 2, Calu-3 cells, read-out: IC50, SARS-CoV-2 viral titer
SARS-CoV-1 = test: microbe, parasite or virus in culture; format: cell-based; conditions: Severe acute respiratory syndrome coronavirus, Calu-3, read-out: IC50, SARS-CoV-1 viral titer
MERS-CoV = test: microbe, parasite or virus in culture; format: cell-based; conditions: Middle East respiratory syndrome-related coronavirus, Calu-3, read-out: IC50, MERS-CoV viral titer
SARS-CoV-2 [7] = test: microbe, parasite or virus in culture; format: cell-based; conditions: for IC50: Severe acute respiratory syndrome coronavirus 2, A549-ACE2, 24 h, 24 h, read-out: IC50, SARS-CoV-2 immunostaining signal
SARS-CoV-2 [8] = test: microbe, parasite or virus in culture; format: cell-based
Calu-3 cells = test: Cell viability assay (MTT) in Calu-3 cells; format: cell-based, human
Protocol: Calu-3 and A549-ACE2 were seeded in 96-well plates with 3.5 × 10^5 cells/ml, 100 μL per well, for 24 h. The compounds to be tested or pure DMSO as […] control were serially diluted in CoV infection medium (DMEM, supplemented with 1 % L-glu, 1 % P/S and 2 % FBS) to obtain 5-fold of the desired final concentrations. The growth medium was removed from the cells and replaced with 80 μl/well of fresh infection medium. Subsequently, 20 μL of the diluted compounds were added in quadruplicates for each concentration (i.e., 5-fold dilution to reach the final concentrations). Cells were incubated for 48 h at 37°C (5% CO2, 96 % rH). At 48 h post treatment, cell viability was measured on a Tecan Safire 2 plate reader using the CellTiter 96® Non-Radioactive Cell Proliferation Assay (MTT) (Promega) according to manufacturer’s instructions.

human primary lung cells = test: Toxicity in human primary lung cells; format: cell-based
SARS-CoV-2 [9] = test: SARS-CoV-2 replication kinetics in Vero E6 cells (RT-qPCR genome copies, western blot); format: cell-based; conditions: for viral genome and protein production: from 8 h onward
[10] = tested on: CHK1 phosphorylation (pCHK1); test: CHK1 phosphorylation in Vero E6 cells (western blot); format: cell-based
Protocol: Cells were lysed in 50 mM Tris pH 7.4, 1% NP-40, 0.25% sodium deoxycholate, 1 mM EDTA, 150 mM NaCl, 1 mM Na3VO4, […], 1mM PMSF, 2 mg ml^-1 aprotinin, 2 mg ml^-1 leupeptin and 0.7 mg ml^-1 pepstatin or Laemmli Sample Buffer (Bio Rad, Hercules, CA). Cell lysates were resolved by SDS-PAGE using 10% gradient gels and transferred to a 0.2 μm PVDF membrane. Subsequently, the membranes were blocked with 5% skim milk and 0.1% Tween-20 in 1x TBST (0.1% Tween-20) at room temperature for 1 hour. The membranes were then probed with respective monoclonal antibodies and detected by Thermo Scientific SuperSignal West Femto Maximum Sensitivity Substrate.

IL6 = IL6 gene expression in SARS-CoV-2-infected Vero E6 cells (RT-qPCR); format: cell-based
SARS-CoV-2 [11] = tested on: SARS-CoV-2
ATR = tested on: ATR; set-up: method as in vendor Selleckchem; conditions: HT29 cells; ref vendor Selleckchem; read-out: IC50, ATR inhibition; cited from earlier work
[12] = set-up: method as in earlier work; conditions: cancer setting, phases 1 and 2, ref Konstantinopoulos et al., 2020, Yap et al., Thomas et al., 2018; cited from earlier work

## CNCc1ccc(-c2cc(-c3nc(-c4ccc(S(=O)(=O)C(C)C)cc4)cnc3N)on2)cc1 [Berzosertib]
SARS-CoV-2 [1]
  antiviral activity (prevention of viral CPE) in primary screen: antiviral activity
SARS-CoV-2 [2]
  IC50: < 25 nM
SARS-CoV-2 [3]
  inhibition of virus replication: complete inhibition
SARS-CoV-2 [4]
  virus production (infectious virus, TCID50, in supernatant): significantly reduced
SARS-CoV-2 [4]; cleaved caspase-3
  apoptotic cell death associated with viral infection: significantly reduced
hiPSC-CMs
  in vitro cardiotoxicity: No in vitro cardiotoxicity
[5]
  CC50 at 24 h: 3890 nM
SARS-CoV-2 [6]
  IC50: 480 nM
SARS-CoV-1
  IC50: 320 nM
MERS-CoV
  IC50: 290 nM
SARS-CoV-2 [7]
  combination effect (isobologram, Compusyn): synergistic
  IC50: 240 nM
SARS-CoV-2 [7]; A549-ACE2 cells
  selectivity index (SI): 204
SARS-CoV-2 [7]; A549-ACE2 cells, […]
  IC50: 220 ± 30 nM
SARS-CoV-2 [8]
  inhibition of SARS-CoV-2: effective
SARS-CoV-2 [8]; Severe acute respiratory syndrome coronavirus 2, human primary lung cells
  IC50: 40 nM
Calu-3 cells
  concentration with detectable toxicity: > 50 µM
Human primary lung cells
  concentration with detectable toxicity: > 50 µM
SARS-CoV-2 [9]; 2 hpi
  number of viral genome copies at 2 hpi (entry): not affected
SARS-CoV-2 [9]
  viral genome and protein production: inhibited
SARS-CoV-2 [9]; listed as berzosertib
  viral genome and protein production: significantly reduced
[10]
  phosphorylation of CHK1: reduced
IL6
  viral-mediated induction of pro-inflammatory gene IL6: reduced
SARS-CoV-2 [11]; HeLa-ACE2 cells
  median effective dose (ED50), percentage of infected cells: 200 nM
SARS-CoV-2 [11]; SARS-CoV-2-infected HeLa-ACE2 cells
  total cells per well (cytotoxic effect at active concentrations): did not change
ATR
  IC50: 19 nM
[12]
  tolerability in oncology clinical studies: well tolerated
